The target of assay [1] is HPK1 kinase (aal-346. Life Technologies) (Homo sapiens (Human), UniProt Q92918). The experiment in a line: HPK Kinase Activity Assay at 1 mM ATP (TR-FRET). Particulars: HPK1 kinase 40 nM, 0.5 μM STK1 substrate, read-out: Enzymatic activity IC50. It counts as biochemical. A general note: Time-resolved FRET reads energy transfer from a long-lived donor to a nearby acceptor.

The test system of assay [2] is pSLP76(S376) level in Jurkat cell line. The experiment in a line: Cellular pSLP76(S376) HTRF Assay. The format is cell-based. Particulars: Homo sapiens, Jurkat, Jurkat cells, 2 h compound treatment, stimulated with 0.05 μg/mL anti-human CD3 (OKT3) for 30 min.

Chain of HPK1 kinase (aal-346. Life Technologies) (Q92918 1-346): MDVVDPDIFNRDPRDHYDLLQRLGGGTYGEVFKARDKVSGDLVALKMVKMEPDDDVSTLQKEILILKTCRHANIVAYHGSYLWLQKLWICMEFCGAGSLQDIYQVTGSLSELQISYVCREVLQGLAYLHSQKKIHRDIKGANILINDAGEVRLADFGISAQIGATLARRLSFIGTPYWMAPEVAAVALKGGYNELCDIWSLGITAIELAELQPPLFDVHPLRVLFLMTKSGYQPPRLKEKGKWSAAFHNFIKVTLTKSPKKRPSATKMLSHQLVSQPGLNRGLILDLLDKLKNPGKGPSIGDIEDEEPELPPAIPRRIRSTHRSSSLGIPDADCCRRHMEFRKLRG

Usually IC50 stands for the concentration needed to halve the response being measured. With `Cc1cc(-c2cnc(N)c(Oc3cnn(C4CCN(C)CC4)c3)n2)cc(C)c1CNc1cnn(C)c1` [Example A57, 5-(3,5-dimethyl-4-(((1-methyl-1H-pyrazol-4-yl)amino)methyl)phenyl)-3-((1-(1-methylpiperidin-4-yl)-1H-pyrazol-4-yl)oxy)pyrazin-2-amine], the values for the IC50 in assay [1] and in assay [2] were 0.024 µM and 0.076 µM, respectively.

As for `Cc1cc(-c2cnc(N)c(Oc3cnn(C4CCN(C)CC4)c3)n2)cc(C2(O)CCOC2)c1F` (centres unmarked) [Example A93, 3-(5-(5-amino-6-((1-(1-methylpiperidin-4-yl)-1H-pyrazol-4-yl)oxy)pyrazin-2-yl)-2-fluoro-3-methylphenyl)tetrahydrofuran-3-ol], the IC50 in assay [1] amounted to 0.037 µM; in assay [2], 0.164 µM.

`COC[C@@H]1COCCN1c1cc(-c2cnc(N)c(Oc3cnn(C4CCN(C)CC4)c3)n2)cc(C2(O)COC2)c1` [Example A76, (R)-3-(3-(5-amino-6-((1-(1-methylpiperidin-4-yl)-1H-pyrazol-4-yl)oxy)pyrazin-2-yl)-5-(3-(methoxymethyl)morpholino)phenyl)oxetan-3-ol]: the IC50 was determined as 0.0058 µM in assay [1] and 0.062 µM in assay [2].

With `Cc1cc(-c2cnc(N)c(Oc3cnn(C4CCN(C)CC4)c3)n2)cc(C)c1CNS(=O)(=O)C1CCOCC1` [Example A31, N-(4-(5-amino-6-((1-(1-methylpiperidin-4-yl)-1H-pyrazol-4-yl)oxy)pyrazin-2-yl)-2,6-dimethylbenzyl)tetrahydro-2H-pyran-4-sulfonamide], the IC50 is 0.034 µM in assay [1] and 0.077 µM in assay [2].

As for `Cc1cc(-c2cnc(N)c(Oc3cnn(C4CCN(C)CC4)c3)n2)ccc1CNS(C)(=O)=O` [Example A46, N-(4-(5-amino-6-((1-(1-methylpiperidin-4-yl)-1H-pyrazol-4-yl)oxy)pyrazin-2-yl)-2-methylbenzyl)methanesulfonamide], the IC50 in assay [1] was 0.051 µM; in assay [2], 0.098 µM.

As for `C[C@@H]1COCCN1c1cc(-c2cnc(N)c(Oc3cnn(C4CCN(C)CC4)c3)n2)cc([C@]2(O)CCOC2)c1` [Example A80B, (R)-3-(3-(5-amino-6-((1-(1-methylpiperidin-4-yl)-1H-pyrazol-4-yl)oxy)pyrazin-2-yl)-5-((R)-3-methylmorpholino)phenyl)tetrahydrofuran-3-ol], the IC50 was found to be 0.0054 µM in assay [1] and 0.048 µM in assay [2].

Take `C[C@@H]1COCCN1c1cc(-c2cnc(N)c(Oc3cnn(C4CCN(C)CC4)c3)n2)cc(C2(O)COC2)n1` [Example B4, (R)-3-(4-(5-amino-6-(1-(1-methylpiperidin-4-yl)-1H-pyrazol-4-yloxy)pyrazin-2-yl)-6-(3-methylmorpholino)pyridin-2-yl)oxetan-3-ol]: the half-inhibitory concentration (IC50) in assay [1] was found to be 0.031 µM; in assay [2] it was 0.102 µM.

For the compound `Cc1cc(-c2cnc(N)c(Oc3cnn(C4CCN(C)CC4)c3)n2)cc(C)c1CNS(=O)(=O)C1CC1` [Example A32, N-(4-(5-amino-6-((1-(1-methylpiperidin-4-yl)-1H-pyrazol-4-yl)oxy)pyrazin-2-yl)-2,6-dimethylbenzyl)cyclopropanesulfonamide], the IC50 was 0.03 µM in assay [1] and 0.081 µM in assay [2].

For `CNS(=O)(=O)c1cc(OC(C)C)cc(-c2cnc(N)c(Oc3cnn(C4CCN(C)CC4)c3)n2)c1` [Example A16, 3-(5-amino-6-((1-(1-methylpiperidin-4-yl)-1H-pyrazol-4-yl)oxy)pyrazin-2-yl)-5-isopropoxy-N-methylbenzenesulfonamide; formic acid], the results for the IC50 in assay [1] and in assay [2] were 0.018 µM and 0.08 µM, respectively.

In the case of `Cc1cc(-c2cnc(N)c(Oc3cnn(C4CCN(C)CC4)c3)n2)cc(C)c1CNC(=O)NCC(F)(F)F` [Example A51, 1-(4-(5-amino-6-((1-(1-methylpiperidin-4-yl)-1H-pyrazol-4-yl)oxy)pyrazin-2-yl)-2,6-dimethylbenzyl)-3-(2,2,2-trifluoroethyl)urea], the results for the IC50 in assay [1] and in assay [2] were 0.046 µM and 0.101 µM, respectively.

As for `CCNC(=O)NCc1c(C)cc(-c2cnc(N)c(Oc3cnn(C4CCN(C)CC4)c3)n2)cc1C` [Example A36, 1-(4-(5-amino-6-((1-(1-methylpiperidin-4-yl)-1H-pyrazol-4-yl)oxy)pyrazin-2-yl)-2,6-dimethylbenzyl)-3-ethylurea], the IC50 in assay [1] came out at 0.022 µM; in assay [2] it was 0.054 µM.

As for `CN1CCC(n2cc(Oc3nc(-c4cc(N5CC6(COC6)C5)cc(C5(O)COC5)c4)cnc3N)cn2)CC1` [Example A78, 3-(3-(5-amino-6-((1-(1-methylpiperidin-4-yl)-1H-pyrazol-4-yl)oxy)pyrazin-2-yl)-5-(2-oxa-6-azaspiro[3.3]heptan-6-yl)phenyl)oxetan-3-ol], the figures for the IC50 in assay [1] and in assay [2] were 0.0055 µM and 0.051 µM, respectively.

For the compound `Cc1cc(-c2cnc(N)c(Oc3cnn(C4CCN(C)CC4)c3)n2)cc(C(=O)NCCN(C)C)c1C` [Example A17, 5-(5-amino-6-((1-(1-methylpiperidin-4-yl)-1H-pyrazol-4-yl)oxy)pyrazin-2-yl)-N-(2-(dimethylamino)ethyl)-2,3-dimethylbenzamide], the IC50 in assay [1] came to 0.059 µM; in assay [2] it was 0.194 µM.

Regarding `Cc1cc(-c2cnc(N)c(Oc3cnn(C4CCN(C)CC4)c3)n2)cc(C)c1CNS(=O)(=O)N1CCOCC1` [Example A71, N-(4-(5-amino-6-((1-(1-methylpiperidin-4-yl)-1H-pyrazol-4-yl)oxy)pyrazin-2-yl)-2,6-dimethylbenzyl)morpholine-4-sulfonamide], the IC50 in assay [1] was found to be 0.026 µM; in assay [2], 0.039 µM.

On to `CCN1CCC(n2cc(Oc3nc(-c4cc(C)cc(S(=O)(=O)NC)c4)cnc3N)cn2)CC1` [Example A27, 3-(5-amino-6-((1-(1-ethylpiperidin-4-yl)-1H-pyrazol-4-yl)oxy)pyrazin-2-yl)-N,5-dimethylbenzenesulfonamide], for which the IC50 in assay [1] came to 0.057 µM; in assay [2] it was 0.081 µM.

For the compound `Cc1cc(-c2cnc(N)c(Oc3cnn(C4CCN(C)CC4)c3)n2)cc(C2(O)CCOC2)c1N1CC2(CCOCC2)C1` (centres unmarked) [Example A92, 3-(5-(5-amino-6-((1-(1-methylpiperidin-4-yl)-1H-pyrazol-4-yl)oxy)pyrazin-2-yl)-3-methyl-2-(7-oxa-2-azaspiro[3.5]nonan-2-yl)phenyl)tetrahydrofuran-3-ol], the IC50 in assay [1] turned out to be 0.007 µM; in assay [2] it was 0.156 µM.

`Cc1cc(-c2cnc(N)c(Oc3cnn(C4CCN(C)CC4)c3)n2)cc(C)c1CNC1COC1` [Example A55, 5-(3,5-dimethyl-4-((oxetan-3-ylamino)methyl)phenyl)-3-((1-(1-methylpiperidin-4-yl)-1H-pyrazol-4-yl)oxy)pyrazin-2-amine]: the values for the IC50 in assay [1] and in assay [2] were 0.034 µM and 0.111 µM, respectively.

As to `C[C@@H]1COCCN1c1cc(-c2cnc(N)c(Oc3cnn(C4CCN(C)CC4)c3)n2)cc([C@@]2(O)CCOC2)c1` [Example A80A, (S)-3-(3-(5-amino-6-((1-(1-methylpiperidin-4-yl)-1H-pyrazol-4-yl)oxy)pyrazin-2-yl)-5-((R)-3-methylmorpholino)phenyl)tetrahydrofuran-3-ol], the IC50 in assay [1] was 0.029 µM; in assay [2], 0.194 µM.

Turning to `Cc1cc(-c2cnc(N)c(Oc3cnn(C4CCN(C)CC4)c3)n2)cc(C2(O)COC2)c1C1=CCOCC1` [Example A86, 3-(5-(5-amino-6-((1-(1-methylpiperidin-4-yl)-1H-pyrazol-4-yl)oxy)pyrazin-2-yl)-2-(3,6-dihydro-2H-pyran-4-yl)-3-methylphenyl)oxetan-3-ol], the half-maximal inhibitory concentration (IC50) in assay [1] was determined as 0.04 µM; in assay [2] it was 0.13 µM.

The values above are taken from patent US20240317714A1, “3-[(1H-PYRAZOL-R-YL)OXY]PYRAZIN-2-AMINE COMPOUNDS AS HPK1 INHIBITOR AND USE THEREOF” (BeiGene, Ltd., priority 2020, published 2024).
